Test results published in ChEMBL document CHEMBL4368919, “Identification of the Metabolic Profile of the α-Tubulin-Binding Natural Product (-)-Pironetin” (J Med Chem, 2019).

Tests used:
Cytochrome P450 2C9 = Cytochrome P450 2C9 (Homo sapiens, UniProt P11712); test: Inhibition of CYP2C9 (unknown origin) using tolbutamide as substrate; assay type: ADME
[1] = Stability in rat serum assessed as compound remaining after 24 hrs; assay type: ADME, cell-free; details: read-out: Stability
[2] = Half life in human liver microsomes in presence of NADPH regeneration system by LC-MS/MS analysis; assay type: ADME, Microsome
[3] = Protein binding in human plasma; assay type: ADME, cell-free; details: read-out: PPB (converted)
[4] = biological target: T1, Tubulin alpha (Homo sapiens) (UniProt P0DPH7+P68366+Q71U36+P68363+Q9BQE3+Q6PEY2+A6NHL2+Q9NY65); test: Inhibition of tubulin alpha in human A2780CP cells assessed as cell growth inhibition after 48 hrs by MTT assay; assay type: cell-based
[5] = Stability in human serum assessed as compound remaining at 1.10 mg after 24 hrs by HPLC analysis; assay type: ADME, cell-free; details: read-out: Stability
Cytochrome P450 3A4 [6] = biological target: T2, Cytochrome P450 3A4 (Homo sapiens, UniProt P08684); test: Inhibition of CYP3A4 (unknown origin) using midazolam as substrate; assay type: ADME
T2 sequence (P08684 whole entry): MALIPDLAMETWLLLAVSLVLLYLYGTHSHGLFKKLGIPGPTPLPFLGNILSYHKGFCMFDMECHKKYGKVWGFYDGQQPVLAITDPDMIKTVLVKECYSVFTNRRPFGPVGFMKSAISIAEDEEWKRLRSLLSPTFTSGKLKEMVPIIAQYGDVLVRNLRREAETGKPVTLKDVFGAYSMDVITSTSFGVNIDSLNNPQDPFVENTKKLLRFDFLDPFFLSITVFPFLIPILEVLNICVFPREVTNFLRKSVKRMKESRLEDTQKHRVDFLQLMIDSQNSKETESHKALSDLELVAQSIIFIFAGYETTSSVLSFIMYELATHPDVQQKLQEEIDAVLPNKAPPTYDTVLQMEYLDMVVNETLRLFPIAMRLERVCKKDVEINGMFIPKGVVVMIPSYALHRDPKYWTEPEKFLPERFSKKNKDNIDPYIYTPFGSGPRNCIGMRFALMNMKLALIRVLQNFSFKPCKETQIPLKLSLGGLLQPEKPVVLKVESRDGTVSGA

[7] = Half life in mouse liver microsomes in presence of NADPH regeneration system by LC-MS/MS analysis; assay type: ADME, Microsome
[8] = Protein binding in mouse plasma; assay type: ADME, cell-free; details: read-out: PPB (converted)
Cytochrome P450 3A4 [9] = biological target: T2, Cytochrome P450 3A4; test: Inhibition of CYP3A4 (unknown origin) using testosterone as substrate; assay type: ADME
[10] = Stability in mouse serum assessed as compound remaining at 1.30 ml after 24 hrs by HPLC analysis; assay type: ADME, cell-free; details: read-out: Stability
Cytochrome P450 2D6 = Cytochrome P450 2D6 (Homo sapiens, UniProt P10635); test: Inhibition of CYP2D6 (unknown origin) using dextromethorphan as substrate; assay type: ADME
Sequence of Cytochrome P450 2D6 (P10635 whole entry): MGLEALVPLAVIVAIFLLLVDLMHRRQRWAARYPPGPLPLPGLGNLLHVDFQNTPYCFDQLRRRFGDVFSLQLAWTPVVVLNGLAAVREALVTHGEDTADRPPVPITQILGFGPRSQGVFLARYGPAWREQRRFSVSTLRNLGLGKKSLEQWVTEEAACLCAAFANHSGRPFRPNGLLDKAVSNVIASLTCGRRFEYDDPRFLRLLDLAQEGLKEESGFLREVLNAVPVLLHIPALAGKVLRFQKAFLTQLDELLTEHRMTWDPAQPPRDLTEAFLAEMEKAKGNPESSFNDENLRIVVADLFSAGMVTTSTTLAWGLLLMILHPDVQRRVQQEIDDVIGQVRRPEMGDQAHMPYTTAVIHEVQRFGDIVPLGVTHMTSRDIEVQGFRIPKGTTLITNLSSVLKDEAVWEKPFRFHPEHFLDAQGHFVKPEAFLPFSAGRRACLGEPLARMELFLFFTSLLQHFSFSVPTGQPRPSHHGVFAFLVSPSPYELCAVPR

[11] = Half life in rat liver microsomes in presence of NADPH regeneration system by LC-MS/MS analysis; assay type: ADME, Microsome
[12] = biological target: T1, Tubulin alpha (Homo sapiens); test: Inhibition of tubulin alpha in human A2780 cells assessed as cell growth inhibition after 48 hrs by MTT assay; assay type: cell-based
[13] = Protein binding in rat plasma; assay type: ADME, cell-free; details: read-out: PPB (converted)
[14] = Inhibition of tubulin alpha in human A2780 cells assessed as reduction in cell growth
3Y1 cell line = test: Cell cycle arrest in rat 3Y1 cells assessed as accumulation at G2/M phase after 24 hrs by propidium iodide-staining based flow cytometry relative to (-)-Pironetin; assay type: ADME; details: 3y1, 24 h
[15] = Drug level in human liver microsomes treated with pironetin assessed as compound formation after 30 mins by LC-MS/MS analysis; assay type: ADME, Microsome; details: 0.5 h

Sequence of Cytochrome P450 2C9 (P11712 whole entry): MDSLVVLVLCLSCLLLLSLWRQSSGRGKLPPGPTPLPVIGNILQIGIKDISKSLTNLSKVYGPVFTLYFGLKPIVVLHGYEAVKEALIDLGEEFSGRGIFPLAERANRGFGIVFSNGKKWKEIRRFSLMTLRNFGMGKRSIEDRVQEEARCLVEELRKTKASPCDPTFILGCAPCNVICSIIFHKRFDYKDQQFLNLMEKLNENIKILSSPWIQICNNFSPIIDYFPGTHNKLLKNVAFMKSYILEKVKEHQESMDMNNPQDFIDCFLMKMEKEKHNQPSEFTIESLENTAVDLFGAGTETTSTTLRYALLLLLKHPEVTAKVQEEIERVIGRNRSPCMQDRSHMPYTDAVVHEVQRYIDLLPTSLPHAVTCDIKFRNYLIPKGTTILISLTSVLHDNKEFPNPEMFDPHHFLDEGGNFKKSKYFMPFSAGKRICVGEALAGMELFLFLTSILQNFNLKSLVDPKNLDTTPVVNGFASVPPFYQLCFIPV

Structure (SMILES): C/C=C/C[C@H](C)[C@@H](OC)[C@@H](C)[C@H](O)C[C@H]1OC(=O)C=C[C@H]1CC [PIRONETIN]
- inhibition (INH) (Cytochrome P450 2C9): Active
- remaining at 24 h [1]: 56%
- t1/2 [2]: 7 min
- fraction unbound [3]: 0.13
- GI50 [4]: 22.3 nM
- remaining at 24 h [5]: 50%
- inhibition (INH) (Cytochrome P450 3A4 [6]): Active
- t1/2 [7]: < 15 min
- fraction unbound [8]: 0.02
- inhibition (INH) (Cytochrome P450 3A4 [9]): Active
- remaining at 24 h [10]: 35%
- inhibition (INH) (Cytochrome P450 2D6): Active
- t1/2 [11]: < 15 min
- GI50 [12]: 22.2 nM
- fraction unbound [13]: 0.07
- IC50 [14]: 26 nM

Structure (SMILES): CC[C@@H]1C=CC(=O)O[C@@H]1C[C@@H](O)[C@H](C)[C@H](OC)[C@@H](C)C[C@@H]1O[C@H]1C (relative stereo)
- GI50 [4]: 1010 nM
- fold change (FC) (3Y1 cell line): 25
- GI50 [12]: 218 nM
- Drug uptake [15]: Active
- IC50 [14]: 540 nM

Structure (SMILES): C/C=C/C[C@H](C)[C@@H](O)[C@@H](C)[C@H](O)C[C@H]1OC(=O)C=C[C@H]1CC
- GI50 [4]: 82.3 nM
- Activity (3Y1 cell line): Toxic
- GI50 [12]: 29.6 nM
- Drug uptake [15]: Active
